Measured values taken from patent EP4417607A1, “HETEROCYCLIC COMPOUND AS SOS1 INHIBITOR AND USES THEREOF” (Nanjing Zaiming Pharmaceutical Co., Ltd., priority 2021, dated 2023).

Columns and labels:
H358 cells = assay: H358 cell proliferation inhibition (CellTiter-Glo luminescent cell viability assay); type: cell-based; conditions: Homo sapiens, NCI-H358, 168 h, 7 days
Experimental: The effect of the compounds of the present invention on H358 cell proliferation was assessed by CellTiter-Glo luminescent cell viability assay kit method.
H358 cells (ATCC, CRL-5807) were cultured in RPMI1640 (Hyclone, SH30256.01) complete medium containing 10% FBS (Gibco, 10100147) and 100 U/mL penicillin-streptomycin mixed solution (Gibco, 15140163). When the cells grew to 80-90%, the cells were digested, pipetted, and seeded in a 96-well plate (Corning, 4515) at 3000 cells/well (180 µL RPMI1640 complete medium), and then the 96-well plate was incubated overnight in an incubator at 37 °C with 5% CO2.
After incubation overnight, 20 µL of a diluted test compound was added to each well using a multi-channel pipette, and the 96-well plate was placed in an incubator at 37 °C with 5% CO2 for further culture. After 7 days, 100 µL of the supernatant was pipetted and discarded. 50 µL of CellTiter-Glo® 3D Cell Viability Assay liquid was added to each well. The plate was shaken at room temperature at 450 rpm for 30 min. After the cells were completely lysed, "Luminescence" on the microplate reader was selected for plate reading. In this experiment, the cell-free group (replaced with 1640 medium) was used as the 100% inhibition group, and the compound-free group in which the cell was added was used as the 0% inhibition group.
The inhibition percentage of H358 cell proliferation by the compounds of the present invention could be calculated by the following formula: [formula]
(§1) IC50 values of the compounds were calculated from 8 concentration points using XLfit (ID Business Solutions Ltd., UK) software by the following formula: Y = Bottom + (Top−Bottom)/(1+10^(∧)((logIC50−X)×slopefactor)) [formula]
Y is the inhibition percentage, X is the logarithmic value of the concentration of the test compound, Bottom is the minimum inhibition percentage, Top is the maximum inhibition percentage, and slope factor is the slope coefficient of the curve.

[1] = system: p-ERK pathway in H358 cells; assay: p-ERK pathway inhibition in H358 cells (Advanced phospho-ERK (Thr202/Tyr204) cellular kit, HTRF); type: cell-based; conditions: Homo sapiens, NCI-H358, 1 h compound incubation
Experimental: The effect of the compounds of the present invention on H358 cell p-ERK pathway was assessed by Advanced phospho-ERK (Thr202/Tyr204) cellular kit method.
The experimental procedures were summarized as follows: H358 cells (ATCC, CRL-5807) were cultured in RPMI1640 (ThermoFisher, A1049101) complete medium containing 10% FBS (Gibco, 10100147) and 100 U/mL penicillin-streptomycin mixed solution (Gibco, 15140163). When the coverage of the cells in the culture vessel reached 80-90%, the cells were pipetted and seeded in a 96-well plate (Corning, 3599) at 50000 cells/well (90 µL RPMI1640 complete medium), and the plate was left to stand for 5 min, cultured in an incubator at 37 °C with 5% CO2 for 6 h, replaced with a serum-free RPMI1640, and starved overnight.
After incubation overnight, 10 µL of a diluted test compound was added to each well using a multi-channel pipette, and the 96-well plate was cultured in an incubator at 37 °C with 5% CO2 for 1 h. The supernatant was poured. The cells were washed once with PBS. 50 µL of a lysis buffer (Advanced phospho-ERK (Thr202/Tyr204) cellular kit, 64AERPEH) was added to each well. The plate was shaken at room temperature at 450 rpm for 1 h. After the cells were completely lysed, 16 µL of the supernatant was added to a 384-well plate (PE, 6007299), mixed energy donor Eu and energy acceptor D2 (D2/Eu = 1:1) were added, and the plate was incubated at room temperature for 4 h. HTRF on the microplate reader was selected for plate reading, Ratio = Signal 665 nm/Signal 620 nm × 10^4. In this experiment, the cell-free group (replaced with 1640 medium) was used as the 100% inhibition group, and the compound-free group in which the cell was added was used as the 0% inhibition group.
The inhibition percentage of H358 cell p-ERK pathway by the compounds of the present invention could be calculated by the following formula: [formula]
as §1
Y is the inhibition percentage, X is the logarithmic value of the concentration of the test compound, Bottom is the minimum inhibition percentage, Top is the maximum inhibition percentage, and slope factor is the slope coefficient of the curve. The default fitted curve was used to fit the slope of the S-shaped curve to determine the IC50 value. Table 2. Results of p-ERK inhibition test by the compounds of the present invention

SMILES	IC50 (H358 cells)	IC50 [1]
COc1c(=O)n(C2(CC#N)CC2)cc2c(N[C@H](C)c3cccc(C(F)F)c3F)nc(C)nc12 [Example 32, (R)-2-(1-(4-((1-(3-(difluoromethyl)-2-fluorophenyl)ethyl)amino)-8-methoxy-2-methyl-7-oxopyrido[4,3-d]pyrimidine-6(7H)-yl)cyclopropyl)acetonitrile]	134 nM	48.9 nM
CC(=O)N1CCC(Oc2c(=O)n(C3(CF)CC3)cc3c(N[C@H](C)c4cccc(C(F)F)c4F)nc(C)nc23)CC1 [Example 73, (R)-8-((1-acetylpiperidin-4-yl)oxy)-4-((1-(3-(difluoromethyl)-2-fluorophenyl)ethyl)amino)-6-(1-(fluoromethyl)cyclopropyl)-2-methylpyrido[4,3-d]pyrimidine-7(6H)-one]	71.8 nM	104 nM
Cc1nc(N[C@H](C)c2cccc(C(F)F)c2F)c2cn(C3(CF)CC3)c(=O)c(N3CCN(CC(F)(F)F)CC3)c2n1 [Example 131, (R)-4-((1-(3-(difluoromethyl)-2-fluorophenyl)ethyl)amino)-6-(1-(fluoromethyl)cyclopropyl)-2-methyl-8-(4-(2,2,2-trifluoroethyl)piperazin-1-yl)pyrido[4,3-d]pyrimidine-7(6H)-one]	88.4 nM	56.5 nM
[2H][C@](C)(Nc1nc(C)nc2c(N3CCOC[C@@H]3C)c(=O)n(C3(CF)CC3)cc12)c1cccc(C(F)F)c1F [Example 112, 4-(((R)-1-(3-(difluoromethyl)-2-fluorophenyl)ethyl-1-d)amino)-6-(1-(fluoromethyl)cyclopropyl)-2-methyl-8-((S)-3-methylmorpholine)pyrido[4,3-d]pyrimidine-7(6H)-one]	21.2 nM	109 nM
Cc1nc(N[C@H](C)c2cccc(S(F)(F)(F)(F)F)c2)c2cn(C3(CF)CC3)c(=O)c(N3CCOCC3)c2n1 [Example 46, (R)-6-(1-(fluoromethyl)cyclopropyl)-2-methyl-8-morpholino-4-((1-(3-(pentafluoro-λ^6-sulfanyl)phenyl)ethyl)amino)pyrido[4,3-d]pyrimidine-7(6H)-one]	74.8 nM	112 nM
Cc1nc(N[C@H](C)c2cccc(C(F)F)c2F)c2cn(C3(CF)CC3)c(=O)c(-c3cnn4c3COCC4)c2n1 [Example 176]	132 nM	126 nM
[2H]C([2H])([2H])[C@@H](Nc1nc(C)nc2c(N3CCOC[C@@H]3C)c(=O)n(C3(CF)CC3)cc12)c1cccc(C(F)F)c1F [Example 113, 4-(((R)-1-(3-(difluoromethyl)-2-fluorophenyl)ethyl-2,2,2-d3)amino)-6-(1-(fluoromethyl)cyclopropyl)-2-methyl-8-((S)-3-methylmorpholine)pyrido[4,3-d]pyrimidine-7(6H)-one]	15.6 nM	70 nM
Cc1nc(N[C@H](C)c2cccc(C(F)(F)F)c2C)c2cn(C3(CF)CC3)c(=O)c(N3CCO[C@H](C)C3)c2n1 [Example 85, 6-(1-(fluoromethyl)cyclopropyl)-2-methyl-4-(((R)-1-(2-methyl-3-(trifluoromethyl)phenyl)ethyl)amino)-8-((R)-2-methylmorpholine)pyrido[4,3-d]pyrimidine-7(6H)-one]	97.2 nM	41 nM

Now from value to molecule:

IC50 (H358 cells)	IC50 [1]	SMILES
73.8 nM	72.4 nM	Cc1nc(N[C@H](C)c2cccc(C(F)F)c2F)c2cn(C3(CF)CC3)c(=O)c(Oc3ccnc(C#N)c3)c2n1 [Example 72, (R)-4-((4-((1-(3-(difluoromethyl)-2-fluorophenyl)ethyl)amino)-6-(1-(fluoromethyl)cyclopropyl)-2-methyl-7-oxo-6,7-dihydropyrido[4,3-d]pyrimidin-8-yl)oxy)pyridinecarbonitrile]
46 nM	87.4 nM	Cc1nc(N[C@H](C)c2cccc(C(F)F)c2F)c2cn(N3CCOCC3)c(=O)c(-c3cnc4ccnn4c3)c2n1 [Example 120, (R)-4-((1-(3-(difluoromethyl)-2-fluorophenyl)ethyl)amino)-2-methyl-6-morpholino-8-(pyrazolo[1,5-a]pyrimidin-6-yl)pyrido[4,3-d]pyrimidine-7(6H)-one]
50.5 nM	95.5 nM	CCN(CC)c1c(=O)n(C2(CF)CC2)cc2c(N[C@H](C)c3cccc(C(F)F)c3F)nc(C)nc12 [Example 96, (R)-8-(diethylamino)-4-((1-(3-(difluoromethyl)-2-fluorophenyl)ethyl)amino)-6-(1-(fluoromethyl)cyclopropyl)-2-methylpyrido[4,3-d]pyrimidine-7(6H)-one]
79 nM	76.8 nM	Cc1nc(N[C@H](C)c2cccc(C(F)F)c2F)c2cn(C3(CF)CC3)c(=O)c(S(C)(=O)=O)c2n1 [Example 66, (R)-4-((1-(3-(difluoromethyl)-2-fluorophenyl)ethyl)amino)-6-(1-(fluoromethyl)cyclopropyl)-2-methyl-8-(methylsulfonyl)pyrido[4,3-d]pyrimidine-7(6H)-one]
47.2 nM	114 nM	[2H]C([2H])([2H])Oc1c(=O)n(N2CCOCC2)cc2c(N[C@H](C)c3cccc(C(F)F)c3F)nc(C)nc12 [Example 48, (R)-4-((1-(3-(difluoromethyl)-2-fluorophenyl)ethyl)amino)-8-(methoxy-d3)-2-methyl-6-morpholinepyrido[4,3-d]pyrimidine-7(6H)-one]
16.8 nM	60.9 nM	Cc1nc(N[C@H](C)c2cccc(C(F)F)c2F)c2cn(C3(CF)CC3)c(=O)c(N3CCN(C(C)C)CC3)c2n1 [Example 94, (R)-4-((1-(3-(difluoromethyl)-2-fluorophenyl)ethyl)amino)-6-(1-(fluoromethyl)cyclopropyl)-8-(4-isopropylpiperazin-1-yl)-2-methylpyrido[4,3-d]pyrimidine-7(6H)-one]
35.7 nM	107 nM	COc1c(=O)n(N2CCOCC2)cc2c(N[C@H](C)c3cccc(S(F)(F)(F)(F)F)c3)nc(C)nc12 [Example 25]
17.4 nM	42.4 nM	Cc1nc(N[C@H](C)c2cccc(C(F)(F)F)c2C)c2cn(C3(CF)CC3)c(=O)c(N3CCOC[C@@H]3C)c2n1 [Example 56, 6-(1-(fluoromethyl)cyclopropyl)-2-methyl-4-(((R)-1-(2-methyl-3-(trifluoromethyl)phenyl)ethyl)amino)-8-((S)-3-methylmorpholine)pyrido[4,3-d]pyrimidine-7(6H)-one]
124 nM	59.8 nM	COC1(C)CCN(c2c(=O)n(C3(CF)CC3)cc3c(N[C@H](C)c4cccc(C(F)F)c4F)nc(C)nc23)CC1 [Example 155]
22.9 nM	38.7 nM	Cc1nc(N[C@H](C)c2cccc(C(F)F)c2F)c2cn(N3CCOCC3)c(=O)c(N3CCN(C)CC3)c2n1 [Example 69, (R)-4-((1-(3-(difluoromethyl)-2-fluorophenyl)ethyl)amino)-2-methyl-8-(4-methylpiperazin-1-yl)-6-morpholinepyrido[4,3-d]pyrimidine-7(6H)-one]
71.6 nM	133 nM	Cc1nc(N[C@H](C)c2cccc(C(F)F)c2F)c2cn(C3(CF)CC3)c(=O)c(N3CCC(C)(O)C3)c2n1 (stereo partly drawn) [Example 62, 4-(((R)-1-(3-(difluoromethyl)-2-fluorophenyl)ethyl)amino)-6-(1-(fluoromethyl)cyclopropyl)-8-(3-hydroxy-3-methylpyrrolidin-1-yl)-2-methylpyrido[4,3-d]pyrimidine-7(6H)-one]
